Laboratory results reported in ChEMBL document CHEMBL1154173, “L-proline-catalysed facile green protocol for the synthesis and antimycobacterial evaluation of [1,4]-thiazines” (2009).
Converted amounts (≈) assume the structure as drawn.

Test system: Mycobacterium tuberculosis
Test: Antimycobacterial activity against multidrug resistant Mycobacterium tuberculosis by agar dilution method
Type: functional

| Compound | MIC |
| --- | --- |
| CCOC(=O)C1C(c2ccc(C)cc2)NC(c2ccc(C)cc2)C(C(=O)c2ccc(Cl)cc2)S1(=O)=O (racemic) | 1.48 µM (≈ 0.779 µg/mL) |
| CCOC(=O)C1C(c2ccc(OC)cc2)NC(c2ccc(OC)cc2)C(C(=O)c2ccc(Cl)cc2)S1(=O)=O (racemic) | 1.4 µM (≈ 0.781 µg/mL) |
| CCOC(=O)C1C(c2ccc(Cl)cc2)NC(c2ccc(Cl)cc2)C(C(=O)c2ccc(Cl)cc2)S1(=O)=O (racemic) | 5.52 µM (≈ 3.13 µg/mL) |
| CCOC(=O)C1C(c2ccc([N+](=O)[O-])cc2)NC(c2ccc([N+](=O)[O-])cc2)C(C(=O)c2ccc(Cl)cc2)S1(=O)=O (racemic) | 0.68 µM (≈ 0.4 µg/mL) |
| CC[C@@H](CO)NCCN[C@@H](CC)CO [ETHAMBUTOL] | 61.2 µM (≈ 12.5 µg/mL) |
| NNC(=O)c1ccncc1 [ISONIAZID] | 45.6 µM (≈ 6.25 µg/mL) |
| NC(=O)c1cnccn1 [PYRAZINAMIDE] | 406 µM (≈ 50 µg/mL) |
| CO[C@H]1/C=C/O[C@@]2(C)Oc3c(C)c(O)c4c(O)c(c(/C=N/N5CCN(C)CC5)c(O)c4c3C2=O)NC(=O)/C(C)=C\C=C\[C@H](C)[C@H](O)[C@@H](C)[C@@H](O)[C@@H](C)[C@H](OC(C)=O)[C@@H]1C [RIFAMPIN] | 3.8 µM (≈ 3.13 µg/mL) |
